Measurements as given in patent publication US20220144839A1, “INDOLE AHR INHIBITORS AND USES THEREOF” (Ikena Oncology, Inc., priority 2018, published 2022).

Target: T1, AHR (UniProt P35869)
T1 sequence (P35869 1-848): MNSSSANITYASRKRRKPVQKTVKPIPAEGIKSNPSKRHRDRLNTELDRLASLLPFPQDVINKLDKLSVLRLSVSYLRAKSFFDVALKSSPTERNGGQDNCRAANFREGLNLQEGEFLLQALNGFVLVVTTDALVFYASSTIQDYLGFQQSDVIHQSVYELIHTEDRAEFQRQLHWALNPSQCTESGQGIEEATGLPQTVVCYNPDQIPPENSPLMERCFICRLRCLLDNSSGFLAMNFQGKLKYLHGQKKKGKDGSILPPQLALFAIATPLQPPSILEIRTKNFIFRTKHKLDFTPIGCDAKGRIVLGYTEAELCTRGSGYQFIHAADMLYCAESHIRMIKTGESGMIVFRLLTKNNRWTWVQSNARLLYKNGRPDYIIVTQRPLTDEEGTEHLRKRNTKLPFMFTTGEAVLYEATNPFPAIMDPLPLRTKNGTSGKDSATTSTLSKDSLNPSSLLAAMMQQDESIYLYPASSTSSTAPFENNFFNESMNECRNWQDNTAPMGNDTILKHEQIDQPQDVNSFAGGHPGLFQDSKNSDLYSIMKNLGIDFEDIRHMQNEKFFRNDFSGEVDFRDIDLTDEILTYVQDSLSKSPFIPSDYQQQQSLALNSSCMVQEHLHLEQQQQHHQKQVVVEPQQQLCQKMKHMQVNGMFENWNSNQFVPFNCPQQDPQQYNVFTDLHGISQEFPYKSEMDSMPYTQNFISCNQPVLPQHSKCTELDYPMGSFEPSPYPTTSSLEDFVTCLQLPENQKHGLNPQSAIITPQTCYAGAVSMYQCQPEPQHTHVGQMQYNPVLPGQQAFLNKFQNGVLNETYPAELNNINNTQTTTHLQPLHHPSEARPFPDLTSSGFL
Assay: DRE-Luciferase Reporter Assay (Alternate Method), Example 1B
Type: cell-based
Details: concentration which inhibits half of the luciferase activity induced by AHR activating ligand; DRE-luciferase reporter cell line
Description: AHR binds to Dioxin Responsive Elements (DRE) upstream of genes that it activates. One measure of AHR activity is activation of a reporter gene, such as luciferase, downstream of one or multiple DRE elements. Luciferase activity will reflect activation and inhibition of AHR in the cells expressing his reporter.
Murine Hepa1-6 or Hepa-1c1c7 or other murine cell line with a DRE-luciferase reporter either stably or transiently transfected were plated in media in plates (96-well, 384-well or other plates) and incubated overnight at 37° C. in a C02 incubator or compound and agonist were added at the time of plating. Likewise, human HepG2 or other human cell line with a DRE-luciferase reporter either stably or transiently transfected were plated in media in plates (96-well, 384-well or other plates) and incubated overnight at 37° C. in a C02 incubator or compound and agonist were added at the time of plating.
At the time that cells are plated or following incubation overnight, an AHR activating ligand, such as TCDD, kynurenine, ITE (2-(1H-indole-3-ylcarbonyl)-4-thiazolecarboxylic methyl ester), VAF347, BNF (beta-naphthoflavone), FICZ (6-formylindolo(3,2-b) carbazole or other AHR ligands, was added with or without AHR antagonist.
Cells were incubated for 4, 15 or 24 hours or another time point and then lysed for determination of luciferase activity as a read-out of the AHR activation or inhibition. Luciferase was measured with a commercial kit such as the Promega Luciferase kit or any kit or reagents that provide the luciferin substrate for measuring luciferase activity. The level of luciferase with only activating ligand added was the maximum signal while the luciferase with no ligand was the minimum signal. IC50 values were determined as the concentration which inhibits half of the luciferase activity.

First: C[C@H](NCC1CC1)c1cnn2c(N[C@@H]3CCc4[nH]c5ccccc5c4C3)nc(-c3cncc(F)c3)nc12 [Compound I-20a, (3R)—N-[8-[(1S)-1-(Cyclopropylmethylamino)ethyl]-2-(5-fluoro-3-pyridyl)pyrazolo[1,5-a][1,3,5]triazin-4-yl]-2,3,4,9-tetrahydro-1H-carbazol-3-amine]
Second: C[C@@H](NCC1CC1)c1cnn2c(N[C@@H]3CCc4[nH]c5ccccc5c4C3)nc(-c3cncc(F)c3)nc12 [Compound I-20b, (3R)—N-[8-[(1R)-1-(Cyclopropylmethylamino)ethyl]-2-(5-fluoro-3-pyridyl)pyrazolo[1,5-a][1,3,5]triazin-4-yl]-2,3,4,9-tetrahydro-1H-carbazol-3-amine]
The IC50 of the first is higher: 1000 to 1500 nM for the first, under 500 nM for the second. The second is the more potent here.

Compared with `CC(C)c1cnn2c(N[C@@H]3CCc4[nH]c5ccccc5c4C3)nc(-n3cccn3)nc12` [Compound I-21, (3R)—N-(8-isopropyl-2-pyrazol-1-yl-pyrazolo[1,5-a][1,3,5]triazin-4-yl)-2,3,4,9-tetrahydro-1H-carbazol-3-amine], `C[C@H](N)c1cnn2c(N[C@@H]3CCc4[nH]c5ccccc5c4C3)nc(-c3cncc(F)c3)nc12` [Compound I-32a, (3R)—N-[8-[(1S)-1-Aminoethyl]-2-(5-fluoro-3-pyridyl)pyrazolo[1,5-a][1,3,5]triazin-4-yl]-2,3,4,9-tetrahydro-1H-carbazol-3-amine] is lower in IC50: over 1500 nM for the first, under 500 nM for the second. The second is the more potent here.

`Cc1ccnc2c(N[C@@H]3CCc4[nH]c5ccccc5c4C3)nc(-c3cncc(F)c3)nc12` [Compound I-22, (3R)—N-[2-(5-fluoro-3-pyridyl)-8-methyl-pyrido[3,2-d]pyrimidin-4-yl]-2,3,4,9-tetrahydro-1H-carbazol-3-amine] and `COc1ccnc2c(N[C@@H]3CCc4[nH]c5ccccc5c4C3)nc(-c3cncc(F)c3)nc12` [Compound I-23, (3R)—N-[2-(5-fluoro-3-pyridyl)-8-methoxy-pyrido[3,2-d]pyrimidin-4-yl]-2,3,4,9-tetrahydro-1H-carbazol-3-amine] cannot be ordered by IC50: under 500 nM for the first, under 500 nM for the second.

`CC(C)c1cnn2c(N[C@@H]3CCc4[nH]c5c(O)cccc5c4C3)nc(-c3cncc(F)c3)nc12` [Compound I-24a, (6R)-6-[[2-(5-fluoro-3-pyridyl)-8-isopropyl-pyrazolo[1,5-a][1,3,5]triazin-4-yl]amino]-6,7,8,9-tetrahydro-5H-carbazol-1-ol] and `CC(C)c1cnn2c(N[C@H]3CCc4[nH]c5c(O)cccc5c4C3)nc(-c3cncc(F)c3)nc12` [Compound I-24b, (6S)-6-[[2-(5-fluoro-3-pyridyl)-8-isopropyl-pyrazolo[1,5-a][1,3,5]triazin-4-yl]amino]-6,7,8,9-tetrahydro-5H-carbazol-1-ol] cannot be ordered by IC50: over 1500 nM for the first, over 1500 nM for the second.

`C[C@@H](CO)c1cnn2c(N[C@@H]3CCc4[nH]c5ccccc5c4C3)nc(-c3cncc(F)c3)nc12` [Compound I-25a, (2R)-2-[2-(5-Fluoro-3-pyridyl)-4-[[(3R)-2,3,4,9-tetrahydro-1H-carbazol-3-yl]amino]pyrazolo[1,5-a][1,3,5]triazin-8-yl]propan-1-ol] and `C[C@H](CO)c1cnn2c(N[C@@H]3CCc4[nH]c5ccccc5c4C3)nc(-c3cncc(F)c3)nc12` [Compound I-25b, (2S)-2-[2-(5-Fluoro-3-pyridyl)-4-[[(3R)-2,3,4,9-tetrahydro-1H-carbazol-3-yl]amino]pyrazolo[1,5-a][1,3,5]triazin-8-yl]propan-1-ol] cannot be ordered by IC50: under 500 nM for the first, under 500 nM for the second.

Compared with `Fc1cc(-c2nc(N[C@@H]3CCc4[nH]c5ccccc5c4C3)n3nccc3n2)cnc1[C@H]1CCCN1` [Compound I-26b, (3R)—N-[2-[5-Fluoro-6-[(2R)-pyrrolidin-2-yl]-3-pyridyl]pyrazolo[1,5-a][1,3,5]triazin-4-yl]-2,3,4,9-tetrahydro-1H-carbazol-3-amine], `Nc1cnn2c(N[C@@H]3CCc4[nH]c5ccccc5c4C3)nc(-c3cncc(F)c3)nc12` [Compound I-31, 2-(5-Fluoro-3-pyridyl)-N4-[(3R)-2,3,4,9-tetrahydro-1H-carbazol-3-yl]pyrazolo[1,5-a][1,3,5]triazine-4,8-diamine] is lower in IC50: over 1500 nM for the first, under 500 nM for the second.

`CC(C)c1cnn2c(N[C@@H]3CCc4[nH]c5cc(O)ccc5c4C3)nc(-c3cncc(F)c3)nc12` [Compound I-27a, (6R)-6-[[2-(5-Fluoro-3-pyridyl)-8-isopropyl-pyrazolo[1,5-a][1,3,5]triazin-4-yl]amino]-6,7,8,9-tetrahydro-5H-carbazol-2-ol] and `CC(C)c1cnn2c(N[C@H]3CCc4[nH]c5cc(O)ccc5c4C3)nc(-c3cncc(F)c3)nc12` [Compound I-27b, (6S)-6-[[2-(5-Fluoro-3-pyridyl)-8-isopropyl-pyrazolo[1,5-a][1,3,5]triazin-4-yl]amino]-6,7,8,9-tetrahydro-5H-carbazol-2-ol] cannot be ordered by IC50: over 1500 nM for the first, over 1500 nM for the second.

`CC(C)c1cnn2c(N[C@H]3CCc4[nH]c5cccc(O)c5c4C3)nc(-c3cncc(F)c3)nc12` [Compound I-29a, (6S)-6-[[2-(5-Fluoro-3-pyridyl)-8-isopropyl-pyrazolo[1,5-a][1,3,5]triazin-4-yl]amino]-6,7,8,9-tetrahydro-5H-carbazol-4-ol] and `CC(C)c1cnn2c(N[C@@H]3CCc4[nH]c5cccc(O)c5c4C3)nc(-c3cncc(F)c3)nc12` [Compound I-29b, (6R)-6-[[2-(5-Fluoro-3-pyridyl)-8-isopropyl-pyrazolo[1,5-a][1,3,5]triazin-4-yl]amino]-6,7,8,9-tetrahydro-5H-carbazol-4-ol] cannot be ordered by IC50: over 1500 nM for the first, over 1500 nM for the second.

First: Fc1cncc(-c2nc(N[C@@H]3CCc4[nH]c5ccccc5c4C3)n3nc4c(c3n2)CCCC4)c1 [Compound I-30, 2-(5-fluoro-3-pyridyl)-N-[(3R)-2,3,4,9-tetrahydro-1H-carbazol-3-yl]-7,8,9,10-tetrahydro-[1,3,5]triazino[1,2-b]indazol-4-amine]
Second: Fc1cncc(-c2nc(N[C@@H]3CCc4[nH]c5ccccc5c4C3)n3nc4c(c3n2)COCC4)c1 [Compound I-33, 2-(5-fluoro-3-pyridyl)-N-[(3R)-2,3,4,9-tetrahydro-1H-carbazol-3-yl]-8,10-dihydro-7H-pyrano[2,3]pyrazolo[2,4-c][1,3,5]triazin-4-amine]
The IC50 of the first is higher: 500 to 1000 nM for the first, under 500 nM for the second.

Going from `C[C@@H](N)c1cnn2c(N[C@@H]3CCc4[nH]c5ccccc5c4C3)nc(-c3cncc(F)c3)nc12` [Compound I-32b, (3R)—N-[8-[(1R)-1-aminoethyl]-2-(5-fluoro-3-pyridyl)pyrazolo[1,5-a][1,3,5]triazin-4-yl]-2,3,4,9-tetrahydro-1H-carbazol-3-amine] to `CC(C)c1cnn2c(N[C@H]3CCc4[nH]c5ccc(O)cc5c4C3)nc(-c3cncc(F)c3)nc12` [Compound I-34a, (6S)-6-[[2-(5-Fluoro-3-pyridyl)-8-isopropyl-pyrazolo[1,5-a][1,3,5]triazin-4-yl]amino]-6,7,8,9-tetrahydro-5H-carbazol-3-ol], the IC50 rises from under 500 nM to over 1500 nM. The first is the more potent here.

First: CC(C)c1cnn2c(N[C@@H]3CCc4[nH]c5ccc(O)cc5c4C3)nc(-c3cncc(F)c3)nc12 [Compound I-34b, (6R)-6-[[2-(5-Fluoro-3-pyridyl)-8-isopropyl-pyrazolo[1,5-a][1,3,5]triazin-4-yl]amino]-6,7,8,9-tetrahydro-5H-carbazol-3-ol]
Second: CC(C)c1cnn2c(N[C@@H]3CNc4ccccc4C3)nc(-c3cncc(F)c3)nc12 [Compound I-35a, (3S)—N-[2-(5-Fluoro-3-pyridyl)-8-isopropyl-pyrazolo[1,5-a][1,3,5]triazin-4-yl]-1,2,3,4-tetrahydroquinolin-3-amine]
The IC50 of the first is higher: over 1500 nM for the first, 1000 to 1500 nM for the second. The second is the more potent here.

With `CC(C)c1cnn2c(N[C@H]3CNc4ccccc4C3)nc(-c3cncc(F)c3)nc12` [Compound I-35b, (R)—N-(2-(5-Fluoropyridin-3-yl)-8-isopropylpyrazolo[1,5-a][1,3,5]triazin-4-yl)-1,2,3,4-tetrahydroquinolin-3-amine] the IC50 was 500 to 1000 nM.
